Measurements published in patent US20260022114A1, “N-(5-SUBSTITUTED-[(1,3,4-THIADIAZOLYL) OR (1,3-THIAZOLYL)](SUBSTITUTED)CARBOXAMIDE COMPOUNDS, PHARMACEUTICAL COMPOSITIONS, AND METHODS OF PREPARING THE AMIDE COMPOUNDS AND OF THEIR USE” (Repare Therapeutics Inc., priority 2022, published 2026).

What follows are molecules tested against PolQ ATPase enzyme (1-894) (Homo sapiens (Human), UniProt O75417) (assay: Polθ ATPase enzymatic assay (0.5 nM enzyme concentration), ADP-Glo). Settings: 0.5 nM PolQ ATPase enzyme (1-894); average IC50.
Chain of PolQ ATPase enzyme (1-894) (O75417 1-894): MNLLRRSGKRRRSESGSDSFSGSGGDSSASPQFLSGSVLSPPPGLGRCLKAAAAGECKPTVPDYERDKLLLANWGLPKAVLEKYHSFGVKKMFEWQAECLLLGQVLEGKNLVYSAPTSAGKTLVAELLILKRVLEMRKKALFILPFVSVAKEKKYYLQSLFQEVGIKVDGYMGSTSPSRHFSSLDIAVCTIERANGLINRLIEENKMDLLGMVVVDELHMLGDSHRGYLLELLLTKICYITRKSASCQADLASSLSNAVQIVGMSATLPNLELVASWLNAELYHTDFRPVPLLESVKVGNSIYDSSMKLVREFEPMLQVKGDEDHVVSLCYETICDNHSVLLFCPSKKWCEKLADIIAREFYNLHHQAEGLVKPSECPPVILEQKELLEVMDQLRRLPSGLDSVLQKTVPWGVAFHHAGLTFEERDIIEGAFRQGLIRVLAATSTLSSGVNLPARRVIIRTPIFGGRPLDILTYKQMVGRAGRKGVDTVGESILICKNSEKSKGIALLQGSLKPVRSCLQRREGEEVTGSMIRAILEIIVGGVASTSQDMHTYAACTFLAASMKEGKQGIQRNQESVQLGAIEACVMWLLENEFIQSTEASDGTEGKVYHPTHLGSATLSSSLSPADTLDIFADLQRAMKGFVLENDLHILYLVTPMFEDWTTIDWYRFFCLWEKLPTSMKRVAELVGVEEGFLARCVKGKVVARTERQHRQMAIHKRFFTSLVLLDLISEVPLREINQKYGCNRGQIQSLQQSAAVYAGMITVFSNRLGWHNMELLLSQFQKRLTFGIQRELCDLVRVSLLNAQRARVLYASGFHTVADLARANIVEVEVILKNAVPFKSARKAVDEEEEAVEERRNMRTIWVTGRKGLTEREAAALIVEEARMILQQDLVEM
Type: biochemical
Description: PolQ ATPase enzyme (1-894) at 0.5 nM is incubated with a 10-point concentration response of inhibitors for 15 min at rt in the following buffer: 50 mM Tris Cl pH 7.5, 10% glycerol, 5 mM DTT, 10 mM MgCl2, 0.1 mg/ml BSA. Following pre-incubation with inhibitors, DNA (Fork C) at 20 nM and ATP at 100 μM are added to start the reaction. Enzymatic reaction proceeds at rt for 180 min. ATP consumption is measured using the ADP-Glo assay from Promega. Luminescence is read on the Envision and IC50 are determined using the variable slope 4-parameters equation.
Oligos are annealed by heating at 95° C. for 5 min in the following buffer (10 mM Tris-HCl PH7.5, 50 mM NaCl, 1 mM EDTA) and cooled to rt. […]

SMILES	IC50 [nM]
C#C[C@H]1C[C@H](c2nnc(NC(=O)c3cnc(-n4ccc(C)cc4=O)cc3-c3cc(C(F)F)ncc3OC)s2)C1 [Compound 595]	2.9
COc1cnc(C(F)F)cc1-c1cc(-n2ccc(N3CCOCC3)cc2=O)ncc1C(=O)Nc1nnc(C#CC2CC2)s1 [Compound 522]	< 0.25
COc1cnc(C(F)F)cc1-c1cc(Oc2cc(N3CCOCC3)ccn2)ncc1C(=O)Nc1nnc(C#CC2CC2)s1 [Compound 526]	1.5
CCOC(=O)N1CCN(c2cc(-c3cc(C(F)F)ncc3OC)c(C(=O)Nc3nnc(C#CC4CC4)s3)cn2)C(=O)C12CC2 [Compound 564]	0.38
COc1cncc(-c2cc(-c3cc(C(F)F)ncc3OC)c(C(=O)Nc3nnc(C#CC4CC4)s3)cn2)c1 [Compound 525]	1.3
C#C[C@H]1CC1c1nnc(NC(=O)c2cnc(-n3ncc(C)cc3=O)cc2-c2cc(C(F)F)ncc2OC)s1 (single isomer, unassigned) [Compound 632]	0.35
COc1cnc(C(F)F)cc1-c1cc(-n2ccc(C)cc2=O)ncc1C(=O)Nc1nnc(C2CC(C)(C)C2)s1 [Compound 567]	4.3
COc1cnc(C(F)F)cc1-c1cc(-n2ccc(C(N)=O)cc2=O)ncc1C(=O)Nc1nnc(C#CC2CC2)s1 [Compound 492]	< 0.25
C#C[C@@]1(F)CC1c1nnc(NC(=O)c2cnc(-n3ccc(C)cc3=O)cc2-c2cc(C(F)F)ncc2OC)s1 (mixture of isomers) [Compound 639]	0.47
COc1cnc(C(F)F)cc1-c1cc(N2CCN(CC#N)C3(CC3)C2=O)ncc1C(=O)Nc1nnc(C#CC2CC2)s1 [Compound 508]	1.2
COc1cnc(C(F)F)cc1-c1cc(C#CCC(C)(C)O)ncc1C(=O)Nc1nnc([C@@H]2C[C@H]2c2ccn(C)n2)s1 [Compound 630]	8.5
COc1ccc(-c2cc(-c3cc(C(F)F)ncc3OC)c(C(=O)Nc3nnc(C#CC4CC4)s3)cn2)c(OC)n1 [Compound 538]	5.7
COc1cnc(C(F)F)cc1-c1cc(-n2ccc(C)cc2=O)ncc1C(=O)Nc1nnc(CC(=O)N(C)C)s1 [Compound 603]	40
COc1cnc(C(F)F)cc1-c1cc(C#CCC(C)(C)O)ncc1C(=O)Nc1nnc([C@H]2C[C@@H]2c2ccn(C)n2)s1 (racemic) [Compound 622]	1.4
COc1cnc(C(F)F)cc1-c1cc(-n2ccc(C)cc2=O)ncc1C(=O)Nc1nnc([C@H]2C[C@@H]2C(F)(F)F)s1 [Compound 534]	0.95
CC#C[C@H]1CC1c1nnc(NC(=O)c2cnc(-n3ccc(C)cc3=O)cc2-c2cc(C(F)F)ncc2OC)s1 (mixture of isomers) [Compound 637]	< 0.25
COC(=O)C1CCN(c2cc(-c3cc(C(F)F)ncc3OC)c(C(=O)Nc3nnc(C#CC4CC4)s3)cn2)C(=O)C1 (stereo not drawn) [Compound 497]	0.45

SMILES	IC50 [nM]
COc1cnc(C(F)F)cc1-c1cc(C#CC2CCCN(C)C2)ncc1C(=O)Nc1nnc(C#CC2CC2)s1 (racemic) [Compound 556]	1.8
COc1cnc(C(F)F)cc1-c1cc(C#CCn2ccnc2)ncc1C(=O)Nc1nnc(C#CC2CC2)s1 [Compound 601]	2.7
COc1cnc(C(F)F)cc1-c1cc(C#CCN2CCCCC2)ncc1C(=O)Nc1nnc(C#CC2CC2)s1 [Compound 589]	0.7
COc1cnc(C(F)F)cc1-c1cc(-n2cccc(Cl)c2=O)ncc1C(=O)Nc1nnc([C@H]2C[C@@H]2C)s1 [Compound 608]	0.79
C#C[C@H]1C[C@@H]1c1nnc(NC(=O)c2cnc(N3CCN(C(=O)OCC)C4(CC4)C3=O)cc2-c2cc(C(F)F)ncc2OC)s1 [Compound 565]	1.1
C#C[C@H]1C[C@@H]1c1nnc(NC(=O)c2cnc(-n3ccc(N4CC5(COC5)C4)cc3=O)cc2-c2cc(C(F)F)ncc2OC)s1 [Compound 627]	0.3
C#C[C@@H]1CC1c1nnc(NC(=O)c2cnc(-n3ccc(C)cc3=O)cc2-c2cc(C(F)F)ncc2OC)s1 (mixture of isomers) [Compound 593]	9.9
COc1cnc(C(F)F)cc1-c1cc(-c2ccc(=O)n(C)c2)ncc1C(=O)Nc1nnc(C#CC2CC2)s1 [Compound 524]	2.3
COc1cnc(C(F)F)cc1-c1cc(-n2ccc(C)cc2=O)ncc1C(=O)Nc1nnc(C(C)OC)s1 (racemic) [Compound 604]	30
[2H]C([2H])([2H])N1CCN(c2cc(-c3cc(C(F)F)ncc3OC)c(C(=O)Nc3nnc(C#CC4CC4)s3)cn2)C(=O)C12CC2 [Compound 503]	< 0.25
C#C[C@H]1CC1c1nnc(NC(=O)c2cnc(N3CCN(C(=O)OC)C4(CC4)C3=O)cc2-c2cc(C(F)F)ncc2OC)s1 (single isomer, unassigned) [Compound 636]	0.33
COc1cnc(C(F)F)cc1-c1cc(-n2ccc(C)cc2=O)ncc1C(=O)Nc1nnc([C@H]2C[C@@H]2c2cncs2)s1 (racemic) [Compound 579]	0.33
COc1cnc(C(F)(F)F)cc1-c1cnccc1C(=O)Nc1nnc(C2C[C@H]2c2ccc(C#N)cc2)s1 (stereo partly drawn) [Compound 90]	0.8
COc1cnc(C(F)F)cc1-c1cc(-c2ccc[nH]c2=O)ncc1C(=O)Nc1nnc(C#CC2CC2)s1 [Compound 484]	0.32
COc1cnc(C(F)F)cc1-c1cc(C#CCN2C(=O)CCC2=O)ncc1C(=O)Nc1nnc(C#CC2CC2)s1 [Compound 561]	> 100
COc1cnc(C(F)F)cc1-c1cc(-c2ccn(C)c(=O)c2)ncc1C(=O)Nc1nnc(C#CC2CC2)s1 [Compound 519]	12
COc1cnc(C(F)F)cc1-c1cc(C#CC(C)(C)N2CCCCC2)ncc1C(=O)Nc1nnc(C#CC2CC2)s1 [Compound 553]	0.5

Other lines, results leading:

IC50 [nM]	SMILES
0.36	COc1cnc(Cl)cc1-c1cnccc1C(=O)Nc1nnc(C2C[C@H]2c2ccc(OC(F)F)cc2)s1 (stereo partly drawn) [Compound 62]
11	COCc1nnc(NC(=O)c2cnc(-n3ccc(C)cc3=O)cc2-c2cc(C(F)F)ncc2OC)s1 [Compound 602]
0.92	COc1cnc(C(F)F)cc1-c1cc(N2CCN(C3CC3)C3(CC3)C2=O)ncc1C(=O)Nc1nnc(C#CC2CC2)s1 [Compound 510]
< 0.25	COC(=O)N1CCN(c2cc(-c3cc(C(F)F)ncc3OC)c(C(=O)Nc3nnc(C#CC4CC4)s3)cn2)C(=O)C12CC2 [Compound 505]
1.7	COc1cnc(C(F)F)cc1-c1cc(-n2ccc(C)cc2=O)ncc1C(=O)Nc1nnc(C2CC2)s1 [Compound 532]
< 0.25	Cc1nnc(Cn2cc(-c3cc(C(F)F)ccc3C)c(C(=O)Nc3ncc(C#CC4CC4)s3)cc2=O)o1 [Compound 116]
0.48	COc1cnc(C(F)F)cc1-c1cc(-n2ccc(C)cc2=O)ncc1C(=O)Nc1nnc([C@H]2C[C@@H]2c2ccccn2)s1 (racemic) [Compound 592]
3.5	C#C[C@H]1C[C@@H]1c1nnc(NC(=O)c2cnc(-n3ccc(OC4CCN(C)C4)cc3=O)cc2-c2cc(C(F)F)ncc2OC)s1 (single isomer, unassigned) [Compound 626]
5.8	Cc1nnc(Cn2cc(-c3cc(C(F)F)ccc3Cl)c(C(=O)Nc3nc(C)c(C#CC4CC4)s3)cc2=O)o1 [Compound 199]
0.33	COc1cnc(C(F)F)cc1-c1cc(-n2ccc(C(=O)O)cc2=O)ncc1C(=O)Nc1nnc(C#CC2CC2)s1 [Compound 495]
< 0.25	COc1cnc(C(F)F)cc1-c1cc(-n2cccc(C)c2=O)ncc1C(=O)Nc1nnc(C#CC2CCOCC2)s1 [Compound 494]
0.87	COc1cnc(C(F)F)cc1-c1c(C(=O)Nc2nnc(C#CC3CC3)s2)ccc(-c2ccn(C)n2)c1F [Compound 385]
< 0.25	COc1cnc(C(F)F)cc1-c1cc(C#CCN2CCCC2=O)ncc1C(=O)Nc1nnc(C#CC2CC2)s1 [Compound 550]
< 0.25	COc1cnc(C(F)F)cc1-c1cc(-n2ccc(C#N)cc2=O)ncc1C(=O)Nc1nnc(C#CC2CC2)s1 [Compound 493]
0.79	C#C[C@H]1C[C@@H]1c1nnc(NC(=O)c2cnc(-n3ccc(N4CCN(C)CC4)cc3=O)cc2-c2cc(C(F)F)ncc2OC)s1 [Compound 548]
< 0.25	COc1cnc(C(F)F)cc1-c1cc(-n2cccc(C(C)=O)c2=O)ncc1C(=O)Nc1nnc(C#CC2CC2)s1 [Compound 491]
1.3	COc1cnc(C(F)F)cc1-c1cc(-n2ccc(C)cc2=O)ncc1C(=O)Nc1nnc([C@H]2C[C@@H]2c2ccnn2C)s1 (racemic) [Compound 582]
1.9	COc1cnc(C(F)F)cc1-c1cc(C2C[C@@H]2C(=O)N(C)C)ncc1C(=O)Nc1nnc(C#CC2CC2)s1 (mixture of isomers) [Compound 361]
0.93	COc1cnc(C(F)F)cc1-c1cc(-c2ccc(C)nc2OC)ncc1C(=O)Nc1nnc(C#CC2CC2)s1 [Compound 501]
0.3	COc1cnc(C(F)F)cc1-c1cc(C#CCN2CCCC2=O)ncc1C(=O)Nc1nnc([C@H]2C[C@@H]2c2cncs2)s1 (racemic) [Compound 643]
5.8	C#C[C@H]1CC1c1nnc(NC(=O)c2cnc(CC#N)cc2-c2cc(C(F)F)ncc2OC)s1 (stereo partly drawn) [Compound 190]
0.95	COc1cnc(C(F)F)cc1-c1cc(-n2cccc(Cl)c2=O)ncc1C(=O)Nc1nnc([C@H]2C[C@@H]2C(F)(F)F)s1 [Compound 607]
1.15	COc1cnc(C(F)F)cc1-c1cc(C#CC(C)(C)N2CC(C)(C)C2)ncc1C(=O)Nc1nnc(C#CC2CC2)s1 [Compound 560]
< 0.25	COc1cnc(C(F)F)cc1-c1cc(-c2cccn(C)c2=O)ncc1C(=O)Nc1nnc(C#CC2CC2)s1 [Compound 483]
< 0.25	COc1cnc(C(F)F)cc1-c1cc(-n2ccc(C3CCOCC3)cc2=O)ncc1C(=O)Nc1nnc(C#CC2CC2)s1 [Compound 506]
1.1	C#C[C@H]1C[C@@H]1c1nnc(NC(=O)c2cnc(-n3ccc(Cl)cc3=O)cc2-c2cc(C(F)F)ncc2OC)s1 [Compound 624]
